In brackets after ≈: the same amount, converted by molar mass. Like-named read-outs stand apart in the source and are kept apart here.
Tests used:
Candida albicans = experiment: Antimicrobial broth microdilution, MIC; type: cell-based; conditions: for MIC: read-out: Minimum inhibitory concentration
Description: (§1) Stilbene production has been correlated with the resistance of grape leaves to fungal infection.

Streptococcus pneumoniae = experiment: Antimicrobial broth microdilution, MIC; type: cell-based; conditions: for MIC: read-out: Minimum inhibitory concentration
Description: as §1

Enterobacter cloacae = experiment: Antimicrobial broth microdilution, MIC; type: cell-based; conditions: for MIC: read-out: Minimum inhibitory concentration
Description: as §1

Escherichla coli = experiment: Antimicrobial broth microdilution, MIC; type: cell-based; conditions: Escherichla coli; for MIC: read-out: Minimum inhibitory concentration
Description: as §1

Enterococcus faecalis = experiment: Antimicrobial broth microdilution, MIC; type: cell-based; conditions: for MIC: read-out: Minimum inhibitory concentration
Description: as §1

Neisseria gonorrhoeae = experiment: Antimicrobial broth microdilution, MIC; type: cell-based; conditions: Neisseria gonorrhoeae; for MIC: read-out: Minimum inhibitory concentration
Description: as §1

Staphylococcus aureus = experiment: Antimicrobial broth microdilution, MIC; type: cell-based; conditions: for MIC: read-out: Minimum inhibitory concentration
Description: as §1

Cryptococcus neoformans = experiment: Antimicrobial broth microdilution, MIC; type: cell-based; conditions: for MIC: read-out: Minimum inhibitory concentration
Description: as §1

Micrococcus luteus = experiment: Antimicrobial broth microdilution, MIC; type: cell-based; conditions: for MIC: read-out: Minimum inhibitory concentration
Description: as §1

[1] = tested on: Stenotrophomonas maltophilia; experiment: Antimicrobial broth microdilution, MIC; type: cell-based; conditions: for MIC: read-out: Minimum inhibitory concentration
Description: as §1

[2] = tested on: P-388 and human tumor cell lines; experiment: Cytotoxicity, summary over P-388 and human tumor cell lines; type: cell-based
BXPC-3 = experiment: Cytotoxicity, pancreas-a BXPC-3; type: cell-based, human; conditions: for GI50: Homo sapiens, BXPC-3, BXPC-3
NCI-H460 = experiment: Cytotoxicity, lung-NSC NCI-H460; type: cell-based, human; conditions: for GI50: Homo sapiens, NCI-H460, NCI-H460, read-out: Lung-NSC NCI-H460 GI50
DU-145 = experiment: Cytotoxicity, prostate DU-145; type: cell-based, human; conditions: for GI50: Homo sapiens, DU-145, DU-145
KM201.2 = experiment: Cytotoxicity, colon KM201.2; type: cell-based, human; conditions: KM201.2; for GI50: Homo sapiens, read-out: Colon KM201.2 GI50
MCF-7 = experiment: Cytotoxicity, breast MCF-7; type: cell-based, human; conditions: for GI50: Homo sapiens, MCF7
SF-268 = experiment: Cytotoxicity, CNS SF-268; type: cell-based, human; conditions: for GI50: Homo sapiens, SF-268, SF-268, read-out: CNS SF-268 GI50

| Compound | Cytotoxicity against cancer cell lines, comparison in words [2] | Pancreas-a BXPC-3 GI50 (BXPC-3) | Lung-NSC NCI-H460 GI50 (NCI-H460) | Prostate DU-145 GI50 (DU-145) | CNS SF-268 GI50 (SF-268) | MIC (Candida albicans) | MIC (Streptococcus pneumoniae) | MIC (Enterobacter cloacae) | MIC (Escherichla coli) | MIC (Enterococcus faecalis; first line (r12)) | MIC (Enterococcus faecalis; second line (r15)) | MIC (Staphylococcus aureus) | MIC (Micrococcus luteus) | MIC [1] | GI50 (BXPC-3) | GI50 (NCI-H460) | GI50 (DU-145) | GI50 (KM201.2) | GI50 (MCF-7) | GI50 (SF-268) | also measured |
| --- | --- | --- | --- | --- | --- | --- | --- | --- | --- | --- | --- | --- | --- | --- | --- | --- | --- | --- | --- | --- | --- |
| COc1ccc(C(=O)c2cc(O)cc(O)c2)cc1 [Compound 16e] | – | – | – | – | – | – | – | – | – | – | – | – | – | – | – | – | – | – | – | – | Minimum inhibitory concentration (Candida albicans): * (no inhibition at 64 μg/ml); Minimum inhibitory concentration (Streptococcus pneumoniae): * (no inhibition at 64 μg/ml); Minimum inhibitory concentration (Enterobacter cloacae): * (no inhibition at 64 μg/ml); Minimum inhibitory concentration (Escherichla coli): * (no inhibition at 64 μg/ml); Minimum inhibitory concentration (Enterococcus faecalis; first line (r12)): * (no inhibition at 64 μg/ml); Minimum inhibitory concentration (Enterococcus faecalis; second line (r15)): * (no inhibition at 64 μg/ml); Minimum inhibitory concentration (Neisseria gonorrhoeae): * (no inhibition at 64 μg/ml); Minimum inhibitory concentration (Staphylococcus aureus): * (no inhibition at 64 μg/ml); Minimum inhibitory concentration (Cryptococcus neoformans): * (no inhibition at 64 μg/ml); Minimum inhibitory concentration (Micrococcus luteus): * (no inhibition at 64 μg/ml); Minimum inhibitory concentration [1]: * (no inhibition at 64 μg/ml) |
| COc1ccc(C=Cc2cc(O)cc(OC)c2)cc1 [Compound 14g, 3-hydroxy-4′,5-dimethoxystilbene] | comparable to that of resveratrol | – | – | – | – | – | – | – | – | – | – | – | – | – | – | – | – | – | – | – | – |
| COc1cc(/C=C\c2ccccc2)cc(OC)c1OP(=O)(OCc1ccccc1)OCc1ccccc1 [Compound 14m, (Z)-3,5-dimethoxy-4-[O-bis(benzyl)phosphoryl]-stilbene] | – | 5.4 µg/mL | 10.7 µg/mL | 35.6 µg/mL | 38.5 µg/mL | – | – | – | – | – | – | – | – | – | – | – | – | – | – | – | Colon KM201.2 GI50 (KM201.2): 24.7 µg/mL; Breast MCF-7 GI50 (MCF-7): 9.0 µg/mL |
| COc1ccc(C=Cc2cc(O)cc(OC)c2)cc1 [Compound 14h, 3-hydroxy-4′,5-dimethoxystilbene] | slightly less active than their cis counterparts | – | – | – | – | > 64 µg/mL | > 64 µg/mL | > 64 µg/mL | > 64 µg/mL | > 64 µg/mL | > 64 µg/mL | > 64 µg/mL | 16 to 64 µg/mL (≈ 62.4 to 250 µM) | > 64 µg/mL | – | – | – | – | – | – | – |
| COc1ccc(C=Cc2cc(OC)cc(OC)c2)cc1 [Compound 4b, 3,4′,5-trimethoxystilbene] | superior in activity to resveratrol (1) | 0.35 µg/mL | 0.62 µg/mL | 1.5 µg/mL | 0.56 µg/mL | – | – | – | – | – | – | – | – | – | – | – | – | – | – | – | – |
| COc1ccc(C(O)c2cc(OC)cc(OC)c2)cc1 (centres unmarked) [Compound 15a] | – | 16.1 µg/mL | 21.7 µg/mL | 23.2 µg/mL | 23.3 µg/mL | – | – | – | – | – | – | – | – | – | – | – | – | – | – | – | Colon KM201.2 GI50 (KM201.2): 21.0 µg/mL |
| COc1cc(OC)cc(C(O)c2ccc(O)cc2)c1 (centres unmarked) [Compound 15c, 4′-Hydroxy-3,5-dimethoxybenzhydrol] | – | – | – | – | – | > 64 µg/mL | 16 µg/mL (≈ 61.5 µM) | > 64 µg/mL | > 64 µg/mL | > 64 µg/mL | > 64 µg/mL | > 64 µg/mL | > 64 µg/mL | > 64 µg/mL | 1.3 µg/mL (≈ 4.99 µM) | 2.3 µg/mL (≈ 8.84 µM) | 5.8 µg/mL (≈ 22.3 µM) | 5.3 µg/mL (≈ 20.4 µM) | 2 µg/mL (≈ 7.68 µM) | 0.65 µg/mL (≈ 2.5 µM) | MIC (Neisseria gonorrhoeae): 2 to 4 µg/mL (≈ 7.68 to 15.4 µM); MIC (Cryptococcus neoformans): > 64 µg/mL |
| Oc1ccc(/C=C\c2cc(O)cc(O)c2)cc1 [Compound 1b, cis-Resveratrol] | slightly less inhibitory effects on the cancer cell lines tested than did the trans-isomer | – | – | – | – | – | – | – | – | – | – | – | – | – | 15.5 µg/mL (≈ 67.9 µM) | 13.2 µg/mL (≈ 57.8 µM) | 10.2 µg/mL (≈ 44.7 µM) | 22 µg/mL (≈ 96.4 µM) | 14.8 µg/mL (≈ 64.8 µM) | 5 µg/mL (≈ 21.9 µM) | – |
| Sodium Resverastatin Phosphate [Compound 14n] | essentially identical to 14c | – | – | – | – | – | – | – | – | – | – | – | – | – | – | – | – | – | – | – | Breast MCF-7 GI50 (MCF-7): 0.73 µg/mL |
| COc1cc(O)cc(C(=O)c2ccc(O)cc2)c1 [Compound 16i, 3,4′-dihydroxy-5-methoxybenzophenone] | – | – | – | – | – | > 64 µg/mL | 64 µg/mL (≈ 262 µM) | > 64 µg/mL | > 64 µg/mL | > 64 µg/mL | > 64 µg/mL | > 64 µg/mL | > 64 µg/mL | > 64 µg/mL | 21.7 µg/mL (≈ 88.8 µM) | 12.1 µg/mL (≈ 49.5 µM) | 16.5 µg/mL (≈ 67.6 µM) | 31.6 µg/mL (≈ 129 µM) | 26.8 µg/mL (≈ 110 µM) | 26.4 µg/mL (≈ 108 µM) | MIC (Neisseria gonorrhoeae): 32 µg/mL (≈ 131 µM); MIC (Cryptococcus neoformans): > 64 µg/mL |
| O=C(c1ccc(O)cc1)c1cc(O)cc(O)c1 [Compound 16g, 3,4′,5-trihydroxybenzophenone] | – | – | – | – | – | > 64 µg/mL | 64 µg/mL (≈ 278 µM) | > 64 µg/mL | > 64 µg/mL | > 64 µg/mL | > 64 µg/mL | > 64 µg/mL | > 64 µg/mL | > 64 µg/mL | 20.5 µg/mL (≈ 89 µM) | 25 µg/mL (≈ 109 µM) | 15 µg/mL (≈ 65.2 µM) | 24.5 µg/mL (≈ 106 µM) | 30.6 µg/mL (≈ 133 µM) | 22.3 µg/mL (≈ 96.9 µM) | MIC (Neisseria gonorrhoeae): > 64 µg/mL; MIC (Cryptococcus neoformans): > 64 µg/mL |
| COc1ccc(C=Cc2cc(O)cc(O)c2)cc1 [Compound 14l, 3,5-dihydroxy-4′-methoxy-stilbene] | slightly less active than their cis counterparts | 6.3 µg/mL | 6.8 µg/mL | 2.7 µg/mL | 3.1 µg/mL | – | – | – | – | – | – | – | – | – | – | – | – | – | – | – | Colon KM201.2 GI50 (KM201.2): 3.8 µg/mL; Breast MCF-7 GI50 (MCF-7): 3.4 µg/mL |
| COc1ccc(C(=O)c2cc(O)cc(OC)c2)cc1 [Compound 16k, 4′,5-dimethoxy-3-hydroxybenzophenone] | – | – | – | – | – | > 64 µg/mL | 32 to 64 µg/mL (≈ 124 to 248 µM) | > 64 µg/mL | > 64 µg/mL | > 64 µg/mL | > 64 µg/mL | > 64 µg/mL | > 64 µg/mL | > 64 µg/mL | 15 µg/mL (≈ 58.1 µM) | 10.3 µg/mL (≈ 39.9 µM) | 12.6 µg/mL (≈ 48.8 µM) | 16.2 µg/mL (≈ 62.7 µM) | 14.2 µg/mL (≈ 55 µM) | 13.9 µg/mL (≈ 53.8 µM) | MIC (Neisseria gonorrhoeae): 16 to 32 µg/mL (≈ 61.9 to 124 µM); MIC (Cryptococcus neoformans): 64 µg/mL (≈ 248 µM) |
| COc1cc(OC)cc(C(=O)c2ccc(O)cc2)c1 [Compound 16c] | – | 4.0 µg/mL | 3.0 µg/mL | 4.1 µg/mL | 3.8 µg/mL | – | – | – | – | – | – | – | – | – | – | – | – | – | – | – | Minimum inhibitory concentration (Candida albicans): * (no inhibition at 64 μg/ml); Minimum inhibitory concentration (Streptococcus pneumoniae): 64 µg/mL (≈ 248 µM); Minimum inhibitory concentration (Enterobacter cloacae): * (no inhibition at 64 μg/ml); Minimum inhibitory concentration (Escherichla coli): * (no inhibition at 64 μg/ml); Minimum inhibitory concentration (Enterococcus faecalis; first line (r12)): * (no inhibition at 64 μg/ml); Minimum inhibitory concentration (Enterococcus faecalis; second line (r15)): * (no inhibition at 64 μg/ml); Minimum inhibitory concentration (Neisseria gonorrhoeae): 32 to 64 µg/mL; Minimum inhibitory concentration (Staphylococcus aureus): * (no inhibition at 64 μg/ml); Minimum inhibitory concentration (Cryptococcus neoformans): * (no inhibition at 64 μg/ml); Minimum inhibitory concentration (Micrococcus luteus): * (no inhibition at 64 μg/ml); Minimum inhibitory concentration [1]: * (no inhibition at 64 μg/ml); Colon KM201.2 GI50 (KM201.2): 3.6 µg/mL; Breast MCF-7 GI50 (MCF-7): 2.2 µg/mL |
| COc1cc(/C=C/c2ccc(O)cc2)cc(OC)c1 [Compound 14d, (E)-3,5-dimethoxy-4′-hydroxy-stilbene] | slightly less active than their cis counterparts | – | – | – | – | – | – | – | – | – | – | – | – | – | 6.5 µg/mL (≈ 25.4 µM) | 2.7 µg/mL (≈ 10.5 µM) | 2.7 µg/mL (≈ 10.5 µM) | 3.4 µg/mL (≈ 13.3 µM) | 2.3 µg/mL (≈ 8.97 µM) | 4.3 µg/mL (≈ 16.8 µM) | – |

Reference: US7705188B2 (Arizona Board of Regents, a body corporate of the State of …, priority 2002, dated 2010)
